Data reported in patent US10883981B2, “Fluorescent fusion polypeptide, encoding nucleic acid, and cell comprising said polypeptide” (priority 2012, dated 2021).
≈ marks a conversion by molar mass, not a printed value. Values belong to the compound of their own block, whether it stands above or below them.

How the values were obtained:
[1] = test system: HEK293 and U2O2 cells stably transfected with calcium biosensor; experiment: Calcium biosensor cellular localization upon calcium induced activation; format: cell-based; conditions: 10 ng/ml of PMA and 1 uM of ionomycin applied together
Source text: After transfection, both cell lines presented a membrane distribution of the fluorescence.

[2] = test system: U2OS stably expressing fluorescent DAG biosensor; experiment: DAG biosensor fluorescence redistribution (internalization) assay
Experimental: Cellular distribution of DAG biosensor stimulated cells. […] DAG biosensor activity was determined measuring the generation of the vesicle using image analysis algorithms.
As with the previous examples, in order to assess whether the activation of the above mentioned polypeptide induces intracellular fluorescence redistribution in living cells, peptide turboGFP was cloned as the fluorescent peptide and the cellular localization of the biosensor was analysed upon diacylglycerol induced activation. In this sense, U2O2 cell line was stably transfected with the plasmid construction that contains the above mentioned biosensor's coding sequence. […] As with the previous examples, activity was calculated as an increment of granularity by treating these cells with increasing dosages of PMA.

[3] = molecular target: human Tachykinin receptor 1 (Neurokinin 1 receptor) (Homo sapiens, UniProt P25103); conditions: 10 uM, 6 hours, U2OS expressing human Neurokinin receptor 1 and calcium biosensor
Chain of human Tachykinin receptor 1 (Neurokinin 1 receptor) (P25103 whole entry): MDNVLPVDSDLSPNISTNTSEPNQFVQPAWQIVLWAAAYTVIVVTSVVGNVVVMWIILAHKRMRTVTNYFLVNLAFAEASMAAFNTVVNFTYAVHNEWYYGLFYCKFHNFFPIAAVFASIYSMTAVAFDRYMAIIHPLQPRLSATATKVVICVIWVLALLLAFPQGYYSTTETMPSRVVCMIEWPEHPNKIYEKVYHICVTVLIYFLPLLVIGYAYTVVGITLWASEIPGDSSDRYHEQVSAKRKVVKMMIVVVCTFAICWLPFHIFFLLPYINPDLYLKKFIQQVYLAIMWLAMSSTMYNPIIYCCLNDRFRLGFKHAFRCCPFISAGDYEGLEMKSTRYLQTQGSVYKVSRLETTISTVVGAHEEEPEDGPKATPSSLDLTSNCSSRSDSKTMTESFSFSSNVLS
Experimental: Secondly, in order to determine whether calcium induces a significant conformational change within a physiological dynamic range, the U2O2 biosensor stable cell line was stably transfected with the human Tachykinin receptor 1.
The double stable cell line was seeded at 20,000 cells per well on 96-mm optical plates, and cultured in 200 ul of DMEM F12 supplemented with 10% fetal bovine serum. For fluorescent biosensor redistribution, cells were stimulated with different concentrations of the agonist Substancia P during 6 hours. After treatment, the nucleus was stained with DAPI and biosensor fluorescence redistribution was detected by fluorescence using image analysis algorithms. […] The activity was calculated as an increment of the granularity of these cells. Cells were treated with 11 log dilution series (n=5).

Compound: CCCCCCCCCCCCCC(=O)O[C@@H]1[C@@H](C)[C@@]2(O)[C@@H](C=C(CO)C[C@]3(O)C(=O)C(C)=C[C@@H]23)[C@@H]2C(C)(C)[C@]12OC(C)=O [PMA]
Membrane distribution of calcium biosensor after raising intracellular calcium [1]: substantial decrease in membrane distribution
Cellular distribution of fluorescent DAG biosensor after treatment ([2]; 25 ng/ml, 4 hours, U2OS expressing DAG biosensor): internalized in vesicles in the citosol

EC50 ([2]; Homo sapiens, U2OS, 4 h, read-out: Ec50, biosensor redistribution (increment of granularity)): 0.000289 ng/mL (≈ 0.00137 nM)
Compound: CC(C)NCC(O)c1ccc(O)c(O)c1 (centres unmarked) [Isoproterenol]

Compound: Substance P
Cellular distribution of fluorescent calcium biosensor after treatment [3]: internalized in vesicles in the citosol

Compound: C[C@H](CCC(=O)O)C[C@H](C)C[C@H](C)C(=O)/C=C(\O)[C@H](C)C[C@H](C)C/C=C/[C@@H](C)[C@@H](O)[C@@H](C)[C@@H](O)C[C@@H]1CC[C@@](C)([C@H]2CC[C@@](C)([C@@H](C)O)O2)O1 [ionomycin]
Membrane distribution of calcium biosensor after raising intracellular calcium [1]: substantial decrease in membrane distribution
